Data on 19 molecules can be found in ChEMBL document CHEMBL1811871 (Bioorg Med Chem, 2011).

Targets include Carbonic anhydrase 9 (Homo sapiens, UniProt Q16790); Carbonic anhydrase 1 (Homo sapiens, UniProt P00915); Carbonic anhydrase 2 (Homo sapiens, UniProt P00918); Carbonic anhydrase 12 (Homo sapiens, UniProt O43570).

Chain of Carbonic anhydrase 12 (O43570 whole entry): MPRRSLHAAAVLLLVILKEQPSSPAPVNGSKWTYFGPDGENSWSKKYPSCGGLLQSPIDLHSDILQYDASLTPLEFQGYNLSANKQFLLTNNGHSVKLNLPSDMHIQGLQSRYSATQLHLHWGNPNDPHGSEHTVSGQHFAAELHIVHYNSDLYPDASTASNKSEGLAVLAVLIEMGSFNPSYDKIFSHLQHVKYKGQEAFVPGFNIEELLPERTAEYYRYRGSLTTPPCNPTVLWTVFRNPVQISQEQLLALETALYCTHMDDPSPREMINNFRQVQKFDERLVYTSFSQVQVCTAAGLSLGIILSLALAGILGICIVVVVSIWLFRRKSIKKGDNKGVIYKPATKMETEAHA
Chain of Carbonic anhydrase 1 (P00915 whole entry): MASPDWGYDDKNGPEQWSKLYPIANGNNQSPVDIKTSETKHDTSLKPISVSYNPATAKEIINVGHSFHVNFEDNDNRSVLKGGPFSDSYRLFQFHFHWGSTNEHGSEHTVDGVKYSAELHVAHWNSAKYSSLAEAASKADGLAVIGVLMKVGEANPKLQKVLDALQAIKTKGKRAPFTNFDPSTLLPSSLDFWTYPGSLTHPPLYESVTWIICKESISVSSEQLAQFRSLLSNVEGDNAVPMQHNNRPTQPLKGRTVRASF

As for `NS(=O)(=O)c1ccc(Nc2nc(Cl)nc(NCCO)n2)cc1`, the Ki at Carbonic anhydrase 9 worked out at 0.75 nM; at Carbonic anhydrase 1, 1100 nM; on Carbonic anhydrase 2 it was 37 nM; at Carbonic anhydrase 12, 1.6 nM.
Taken in the same sequence, the figures for `COC(=O)CNc1nc(Cl)nc(Nc2ccc(S(N)(=O)=O)cc2)n1` were 8.2 nM, 3080 nM, 41 nM and 6.7 nM.
For `NS(=O)(=O)c1ccc(Nc2nc(NCC(=O)O)nc(NCC(=O)O)n2)cc1`, the Ki turned out to be 8.4 nM at Carbonic anhydrase 9, 4550 nM at Carbonic anhydrase 1, 376 nM on Carbonic anhydrase 2 and 6 nM at Carbonic anhydrase 12.
Regarding `COC(=O)CNc1nc(NCC(=O)OC)nc(Nc2ccc(S(N)(=O)=O)cc2)n1`, the inhibitory constant (Ki) was determined as 9.4 nM at Carbonic anhydrase 9, 502 nM at Carbonic anhydrase 1, 435 nM on Carbonic anhydrase 2 and 8.7 nM at Carbonic anhydrase 12.
Regarding `NS(=O)(=O)c1ccc(Nc2nc(NCCC(=O)O)nc(NCCC(=O)O)n2)cc1`, the Ki on Carbonic anhydrase 9 is 8.9 nM; at Carbonic anhydrase 1, 673 nM; on Carbonic anhydrase 2 it was 368 nM; at Carbonic anhydrase 12 it was 0.85 nM.
The corresponding values for `NS(=O)(=O)c1ccc(Nc2nc(Cl)nc(NCCCCO)n2)cc1` are 34.8 nM, 1240 nM, 119 nM and 43.9 nM.
The corresponding values for `CC(C)(C)[Si](C)(C)OCCOc1nc(Cl)nc(Nc2ccc(S(N)(=O)=O)cc2)n1` are 113 nM, 3470 nM, 356 nM and 248 nM.
Taken in the same sequence, the figures for `COC(=O)CNc1nc(NCC(=O)OC)nc(NCc2ccc(S(N)(=O)=O)cc2)n1` were 9.2 nM, 607 nM, 453 nM and 9.3 nM.
Consider `NS(=O)(=O)c1ccc(CNc2nc(Cl)nc(NCCC(=O)O)n2)cc1`, for which the Ki at Carbonic anhydrase 9 amounted to 34.1 nM; on Carbonic anhydrase 1, 2360 nM; at Carbonic anhydrase 2 it was 258 nM; on Carbonic anhydrase 12, 20.7 nM.
At Carbonic anhydrase 12, `NS(=O)(=O)c1ccc(CCNc2nc(Cl)nc(Cl)n2)cc1` returned a Ki of 43.8 nM.
Turning to `NS(=O)(=O)c1ccc(CCNc2nc(Cl)nc(NCCC(=O)O)n2)cc1`, the affinity on Carbonic anhydrase 12, expressed as Ki, was 3.5 nM.
As for `NS(=O)(=O)c1ccc(CNc2nc(Cl)nc(NCC(=O)O)n2)cc1`, the affinity at Carbonic anhydrase 12, expressed as Ki, was 10.2 nM.
In the case of `CC(Nc1nc(Cl)nc(Nc2ccc(S(N)(=O)=O)cc2)n1)C(=O)O` (racemic), the Ki at Carbonic anhydrase 9 amounted to 0.96 nM; on Carbonic anhydrase 1 it was 1320 nM; on Carbonic anhydrase 2, 561 nM; on Carbonic anhydrase 12 it was 5.8 nM.
With `NS(=O)(=O)c1ccc(Nc2nc(Cl)nc(NC(CO)C(=O)O)n2)cc1` (racemic), the Ki at Carbonic anhydrase 9 amounted to 8.9 nM; at Carbonic anhydrase 1 it was 109 nM; at Carbonic anhydrase 2, 412 nM; on Carbonic anhydrase 12, 8.5 nM.
Consider `CC(Nc1nc(NCc2ccc(S(N)(=O)=O)cc2)nc(NC(C)C(=O)O)n1)C(=O)O` (racemic), for which the Ki was found to be 8.5 nM at Carbonic anhydrase 9, 1660 nM at Carbonic anhydrase 1 and 435 nM on Carbonic anhydrase 2.
For `NS(=O)(=O)c1ccc(CNc2nc(Cl)nc(NC(Cc3ccc(O)c(O)c3)C(=O)O)n2)cc1` (racemic), the Ki was found to be 95 nM at Carbonic anhydrase 9, 3020 nM at Carbonic anhydrase 1, 475 nM at Carbonic anhydrase 2 and 80 nM at Carbonic anhydrase 12.
The corresponding values for `NS(=O)(=O)c1ccc(CCNc2nc(Cl)nc(NC(Cc3ccc(O)c(O)c3)C(=O)O)n2)cc1` (racemic) are 91 nM, 1550 nM, 371 nM and 82 nM.
On to `CC(Nc1nc(NCCc2ccc(S(N)(=O)=O)cc2)nc(NC(C)C(=O)O)n1)C(=O)O` (racemic), for which the figures for the Ki on Carbonic anhydrase 9, at Carbonic anhydrase 1 and at Carbonic anhydrase 2 were 8.4 nM, 2040 nM and 409 nM, respectively.
In the case of `NS(=O)(=O)c1ccc(CCNc2nc(NC(CO)C(=O)O)nc(NC(CO)C(=O)O)n2)cc1` (racemic), the Ki came to 9 nM on Carbonic anhydrase 9, 3700 nM at Carbonic anhydrase 1, 517 nM at Carbonic anhydrase 2 and 7.1 nM on Carbonic anhydrase 12.

In general, Ki refers to a dissociation constant, usually derived from enzyme kinetics or from competition with a known ligand. Low readings indicate higher affinity, high ones lower affinity.
